Measured values published in patent US20080167201A1, “Method For Synthesizing Derivative, Compound Library and Method For Constructing the Same, and Method For Screening” (priority 2004, published 2008).

Columns and labels:
[1] = system: HT-29 cells derived from human colon cancer; experiment: ATP synthesis (ATP content by luciferase luciferin) in HT-29 cells; assay type: cell-based; details: 3 hr incubation, same concentration range as inhibits cell migration (FIG. 5)
Protocol: 1 ml of suspension of HT-29 cells derived from human colon cancer (4×10^5 cells/ml; RPMI1640 medium) was added to each well of a 24-well plate and incubated at 37° C. for 24 hr. Then, migrastatin or oxidized migrastatin was added thereto and incubated for 3 hr. In addition, a cultured broth to which migrastatin and oxidized migrastatin were not added was similarly incubated as a control. After the incubation, each well was washed twice with ice-cooled PBS^−. After an addition of 200 μl of 2% trichloroacetic acid, the plate was left at 4° C. for 30 min. The supernatant (160 μl) was neutralized with 36.8 μl of 0.5 N NaOH and used as a sample. This sample (160 μl) was added to 3 ml of PBS^− containing 4 mM MgCl2. Then, 40 μl of 4 mg/ml luciferase luciferin (Sigma) was added thereto and immediately the ATP content was measured with a single-photon monitor of a scintillation counter (LS-5000TD: BECKMAN COULTER). In addition, the ATP content under the conditions where the sample and luciferase luciferin were not added was measured as a blank value and was subtracted from each measurement value.

[2] = system: EC17 cells derived from human esophageal cancer; experiment: cell migration inhibition, scratch assay with EC17 cells; assay type: cell-based; details: compound added immediately after scratching, 24 hr incubation, microscopic observation (FIG. 4)
Protocol: 500 μl of suspension of EC17 cells derived from human esophageal cancer (1.5×10^5 cells/ml; RPMI1640 medium (Nissui)) was added to each well of a 48-well plate and incubated at 37° C. for 24 hr. Then, the cells were linearly scraped off by scratching the center of the bottom of each well in a straight line with a micropipette tip. Then, the supernatant of the culture broth was immediately removed. The well was washed with 300 μl of PBS^− (8 g/l NaCl, 0.2 g/l KCl, 0.916 g/l Na2HPO4, 0.2 g/l KH2PO4) carefully not to scrape the remaining cells, and 500 μl of a RPMI1640 medium containing 1% serum (FBS; manufactured by Tissue Culture Biologicals) was gently added to the well. Further, migrastatin or oxidized migrastatin was added thereto and incubated at 37° C. for 24 hr. In addition, a culture broth to which migrastatin and oxidized migrastatin were not added was similarly incubated as a control. After the incubation, how much the straight line formed with the micropipette tip was filled with cells which had migrated from surroundings was confirmed by microscopic observation to evaluate migration of the cells.

| SMILES | inhibition of ATP synthesis [1] | migration of cells ([2]; concentration of 30 μl/ml) | inhibition of migration of cells over the concentration range [2] |
| --- | --- | --- | --- |
| CO[C@H]1/C=C/CC/C=C/C(=O)O[C@H]([C@H](C)C(=O)CCCC2CC(=O)NC(=O)C2)/C(C)=C\[C@@H](C)[C@@H]1O [migrastatin] | inhibited ATP synthesis | completely inhibited | inhibited depending on the concentration of migrastatin |
| CO[C@H]1/C=C/CC/C=C/C(=O)O[C@H]([C@H](C)C(=O)CCCC2CC(=O)NC(=O)C2)/C(C)=C\[C@@H](C)C1=O [oxidized migrastatin, migrastatin oxide] | did not inhibit ATP synthesis at all | – | inhibition effect was observed at almost the same concentration range |
